Data reported in publication PMC11600510 (Journal of Chemical Information and Modeling, 2024).

What was measured:
[1] = target: T1, Spike RBD/ACE2 (19–615) interaction (Severe acute respiratory syndrome coronavirus 2, UniProt P0DTC2); experiment: cell-based; type: cell-based, SARS-CoV-2
T1 construct: S protein RBD (aa residues 319–541) of SARS-CoV-2; expressed in transfected cells; host or cells: HEK293T

[2] = test system: HEK293T cells; experiment: MTT cytotoxicity assay in HEK293T cells; type: cell-based; details: 100 μM, 48 h
Procedure: (§1) Chemical compounds were dissolved and serially diluted in DMSO. Their cytotoxicity was assessed using an MTT assay. Briefly, HEK293T, SH-SY5Y or Vero E6 cells were cultured in 96-well plates (4 × 10^4 cells/well) at 37 °C in a 5% CO2 atmosphere. Cells were treated for 48 h with varying concentrations of the compounds (100–0.1 μM) or solvent. […] Treated cells were incubated for 4 h with […] MTT (Applichem). After incubation, the MTT-containing medium was removed and formazan crystals were dissolved in DMSO. The optical density (OD) of formazan solution at 570 and 630 nm was measured in a SPARK plate reader (Tecan).

[3] = test system: Vero E6 cells; experiment: MTT toxicity assay in Vero E6 cells; type: cell-based; details: 48 h
Procedure: as §1

SMILES: Cc1cc(O)c2c(c1)C(=O)c1cc(O)cc(O)c1C2=O [Emodin, reference compound]
- suppression of Spike/ACE2 interaction ([1]; 100 μM): ~27%
- cytotoxicity [2]: non-cytotoxic

SMILES: O=[N+]([O-])c1ccc(/C=C/C[n+]2cn(CCc3ccc4ccccc4c3)c3ccccc32)cc1.[Br-] [CKP-47, (E)-1-(2-(Naphthalen-2-yl)ethyl)-3-(3-(4-nitrophenyl)allyl)-1H-benzo[d]imidazol-3-ium Bromide]
- toxicity against Vero E6 cells [3]: toxic
- inhibition at 10 µM ([1]; HEK-293T, 48 h, read-out: suppression of Spike RBD/ACE2 (19–615) interaction): 34%
- melting point: 176 to 177 °C (dec.)
